Experimental findings from the supplement of paper PMC10307832 are described below.

One assay has as its system HCC-366. Briefly: relative viability (nuclei count vs DMSO), 5 days (fraction); higher = more cells survive. The settings on record: first compound 0.08 µM. In outline: (§1)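 Dosing by pin tool came one day after lung cancer cell lines were seeded in 1536-well plates, using either one drug or a fixed anchor-drug dose plus five library-drug doses (not always all listed) in √10 steps. After 5 days, nuclei were counted on 4× images. Relative viability is treated-well nuclei count divided by vehicle-well nuclei count, and values are medians of duplicate plates.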
`CCCCCCCCCCCC1=C(O)C(=O)C=C(O)C1=O` [Embelin] + COc1cccc2cc(-c3nc([C@H]4CC[C@H](C(=O)O)CC4)n4ncnc(N)c34)[nH]c12 [OSI-027] (partner 0.5 µM) showed a relative viability of 0.926.

In the case of `CCCCCCCCCCCC1=C(O)C(=O)C=C(O)C1=O` [Embelin] + Nc1nc2[nH]cc(CCc3ccc(C(=O)N[C@@H](CCC(=O)O)C(=O)O)cc3)c2c(=O)[nH]1 [Pemetrexed] (partner 0.2 µM), the relative viability was 0.161.

The assay is the same for the next values; noted with them: first compound 0.8 µM.
With `CCCCCCCCCCCC1=C(O)C(=O)C=C(O)C1=O` [Embelin] + Cc1cc(Nc2cc(N3CCN(C)CC3)nc(Sc3ccc(NC(=O)C4CC4)cc3)n2)n[nH]1 [Tozasertib] (partner 0.1 µM), the relative viability amounted to 0.188.

Regarding `CCCCCCCCCCCC1=C(O)C(=O)C=C(O)C1=O` [Embelin] + CC(=O)Nc1cccc(-n2c(=O)n(C3CC3)c(=O)c3c(Nc4ccc(I)cc4F)n(C)c(=O)c(C)c32)c1 [Trametinib] (partner 0.02 µM), the relative viability amounted to 0.431.

`CCCCCCCCCCCC1=C(O)C(=O)C=C(O)C1=O` [Embelin] + Nc1ncn([C@H]2C[C@H](O)[C@@H](CO)O2)c(=O)n1 [Decitabine] (partner 2 µM) registered a relative viability of 0.306.

For `CCCCCCCCCCCC1=C(O)C(=O)C=C(O)C1=O` [Embelin] + COc1cccc2cc(-c3nc([C@H]4CC[C@H](C(=O)O)CC4)n4ncnc(N)c34)[nH]c12 [OSI-027] (partner 0.5 µM), the relative viability is 1.16.

Consider `CCCCCCCCCCCC1=C(O)C(=O)C=C(O)C1=O` [Embelin] + Nc1nc2[nH]cc(CCc3ccc(C(=O)N[C@@H](CCC(=O)O)C(=O)O)cc3)c2c(=O)[nH]1 [Pemetrexed] (partner 0.2 µM), for which the relative viability is 0.149.

Staying with this assay, now noted: first compound 2.53 µM.
Compound `CCCCCCCCCCCC1=C(O)C(=O)C=C(O)C1=O` [Embelin] + Cc1cc(Nc2cc(N3CCN(C)CC3)nc(Sc3ccc(NC(=O)C4CC4)cc3)n2)n[nH]1 [Tozasertib] (partner 0.1 µM) returned a relative viability of 0.177.

On to `CCCCCCCCCCCC1=C(O)C(=O)C=C(O)C1=O` [Embelin] + CC(=O)Nc1cccc(-n2c(=O)n(C3CC3)c(=O)c3c(Nc4ccc(I)cc4F)n(C)c(=O)c(C)c32)c1 [Trametinib] (partner 0.02 µM), for which the relative viability is 0.446.

Regarding `CCCCCCCCCCCC1=C(O)C(=O)C=C(O)C1=O` [Embelin] + Nc1ncn([C@H]2C[C@H](O)[C@@H](CO)O2)c(=O)n1 [Decitabine] (partner 2 µM), the relative viability is 0.372.

With `CCCCCCCCCCCC1=C(O)C(=O)C=C(O)C1=O` [Embelin] + COc1cccc2cc(-c3nc([C@H]4CC[C@H](C(=O)O)CC4)n4ncnc(N)c34)[nH]c12 [OSI-027] (partner 0.5 µM), the relative viability was 1.03.

In turn, `CCCCCCCCCCCC1=C(O)C(=O)C=C(O)C1=O` [Embelin] + Nc1nc2[nH]cc(CCc3ccc(C(=O)N[C@@H](CCC(=O)O)C(=O)O)cc3)c2c(=O)[nH]1 [Pemetrexed] (partner 0.2 µM) gave a relative viability of 0.151.

Still in this assay, the particulars now being: first compound 8 µM.
The compound `CCCCCCCCCCCC1=C(O)C(=O)C=C(O)C1=O` [Embelin] + Cc1cc(Nc2cc(N3CCN(C)CC3)nc(Sc3ccc(NC(=O)C4CC4)cc3)n2)n[nH]1 [Tozasertib] (partner 0.1 µM) had a relative viability of 0.113.

Take `CCCCCCCCCCCC1=C(O)C(=O)C=C(O)C1=O` [Embelin] + CC(=O)Nc1cccc(-n2c(=O)n(C3CC3)c(=O)c3c(Nc4ccc(I)cc4F)n(C)c(=O)c(C)c32)c1 [Trametinib] (partner 0.02 µM): the relative viability came out at 0.326.

In turn, `CCCCCCCCCCCC1=C(O)C(=O)C=C(O)C1=O` [Embelin] + Nc1ncn([C@H]2C[C@H](O)[C@@H](CO)O2)c(=O)n1 [Decitabine] (partner 2 µM) returned a relative viability of 0.336.

`CCCCCCCCCCCC1=C(O)C(=O)C=C(O)C1=O` [Embelin] + COc1cccc2cc(-c3nc([C@H]4CC[C@H](C(=O)O)CC4)n4ncnc(N)c34)[nH]c12 [OSI-027] (partner 0.5 µM) registered a relative viability of 0.905.

For the compound `CCCCCCCCCCCC1=C(O)C(=O)C=C(O)C1=O` [Embelin] + Nc1nc2[nH]cc(CCc3ccc(C(=O)N[C@@H](CCC(=O)O)C(=O)O)cc3)c2c(=O)[nH]1 [Pemetrexed] (partner 0.2 µM), the relative viability was 0.236.

A further assay has as its system HCC-44. The description is as above. The note with it: first compound 0.08 µM. In outline:
as §1
On to `CCCCCCCCCCCC1=C(O)C(=O)C=C(O)C1=O` [Embelin] + Cc1cc(Nc2cc(N3CCN(C)CC3)nc(Sc3ccc(NC(=O)C4CC4)cc3)n2)n[nH]1 [Tozasertib] (partner 0.1 µM), for which the relative viability was found to be 1.03.

As for `CCCCCCCCCCCC1=C(O)C(=O)C=C(O)C1=O` [Embelin] + CC(=O)Nc1cccc(-n2c(=O)n(C3CC3)c(=O)c3c(Nc4ccc(I)cc4F)n(C)c(=O)c(C)c32)c1 [Trametinib] (partner 0.02 µM), the relative viability was determined as 1.04.

In turn, `CCCCCCCCCCCC1=C(O)C(=O)C=C(O)C1=O` [Embelin] + Nc1ncn([C@H]2C[C@H](O)[C@@H](CO)O2)c(=O)n1 [Decitabine] (partner 2 µM) showed a relative viability of 0.981.

The compound `CCCCCCCCCCCC1=C(O)C(=O)C=C(O)C1=O` [Embelin] + COc1cccc2cc(-c3nc([C@H]4CC[C@H](C(=O)O)CC4)n4ncnc(N)c34)[nH]c12 [OSI-027] (partner 0.5 µM) gave a relative viability of 0.481.

`CCCCCCCCCCCC1=C(O)C(=O)C=C(O)C1=O` [Embelin] + Nc1nc2[nH]cc(CCc3ccc(C(=O)N[C@@H](CCC(=O)O)C(=O)O)cc3)c2c(=O)[nH]1 [Pemetrexed] (partner 0.2 µM) registered a relative viability of 0.634.

The same assay, now with this note: first compound 0.8 µM.
The compound `CCCCCCCCCCCC1=C(O)C(=O)C=C(O)C1=O` [Embelin] + Cc1cc(Nc2cc(N3CCN(C)CC3)nc(Sc3ccc(NC(=O)C4CC4)cc3)n2)n[nH]1 [Tozasertib] (partner 0.1 µM) returned a relative viability of 1.12.

`CCCCCCCCCCCC1=C(O)C(=O)C=C(O)C1=O` [Embelin] + CC(=O)Nc1cccc(-n2c(=O)n(C3CC3)c(=O)c3c(Nc4ccc(I)cc4F)n(C)c(=O)c(C)c32)c1 [Trametinib] (partner 0.02 µM) displayed a relative viability of 1.08.

In the case of `CCCCCCCCCCCC1=C(O)C(=O)C=C(O)C1=O` [Embelin] + Nc1ncn([C@H]2C[C@H](O)[C@@H](CO)O2)c(=O)n1 [Decitabine] (partner 2 µM), the relative viability turned out to be 0.953.

Compound `CCCCCCCCCCCC1=C(O)C(=O)C=C(O)C1=O` [Embelin] + COc1cccc2cc(-c3nc([C@H]4CC[C@H](C(=O)O)CC4)n4ncnc(N)c34)[nH]c12 [OSI-027] (partner 0.5 µM) gave a relative viability of 0.479.

For the compound `CCCCCCCCCCCC1=C(O)C(=O)C=C(O)C1=O` [Embelin] + Nc1nc2[nH]cc(CCc3ccc(C(=O)N[C@@H](CCC(=O)O)C(=O)O)cc3)c2c(=O)[nH]1 [Pemetrexed] (partner 0.2 µM), the relative viability turned out to be 0.632.

The assay is the same for the next values; noted with them: first compound 2.53 µM.
Take `CCCCCCCCCCCC1=C(O)C(=O)C=C(O)C1=O` [Embelin] + Cc1cc(Nc2cc(N3CCN(C)CC3)nc(Sc3ccc(NC(=O)C4CC4)cc3)n2)n[nH]1 [Tozasertib] (partner 0.1 µM): the relative viability amounted to 0.814.

Take `CCCCCCCCCCCC1=C(O)C(=O)C=C(O)C1=O` [Embelin] + CC(=O)Nc1cccc(-n2c(=O)n(C3CC3)c(=O)c3c(Nc4ccc(I)cc4F)n(C)c(=O)c(C)c32)c1 [Trametinib] (partner 0.02 µM): the relative viability amounted to 1.1.
